Earlier results in patent US7655257B2, “Sustained delivery of an active agent using an implantable system” (Intarcia Therapeutics, Inc., priority 1996, dated 2010).

Assays:
[1] = test system: prostatic tumors in Noble and Dunning male rats and DMBA-induced mammary tumors in female rats
[2] = continuous administration, humans

CCNC(=O)[C@@H]1CCCN1C(=O)[C@H](CCCNC(=N)N)NC(=O)[C@H](CC(C)C)NC(=O)[C@@H](CC(C)C)NC(=O)[C@H](Cc1ccc(O)cc1)NC(=O)[C@H](CO)NC(=O)[C@H](Cc1c[nH]c2ccccc12)NC(=O)[C@H](Cc1c[nH]cn1)NC(=O)[C@@H]1CCC(=O)N1 [Leuprolide acetate]
level of LH and FSH (gonadotropin secretion; [2]): decreased level of LH and FSH
testosterone in males (gonadotropin secretion; [2]): reduced to castrate levels
activity when given orally (gonadotropin secretion; oral): not active
growth of hormone-dependent tumors [1]: inhibition of the growth
